Legend:
Assay type in all cases: cell-based, human
[1] = system: gastric adenocarcinoma (AGS); test: in vitro MTT proliferation assay, AGS cells; details: 48 hrs; for inhibition of cancer cell line AGS: 0.3-100 μg/ml, absorbance at 492 nm; for IC50 values for AGS: calculated with XLfit
Method: (§1) An in vitro assay was conducted to evaluate the efficacy of LuA, LuB, and LuE in inhibiting proliferation of cancer cells.
(§2) Four human tumor cell lines, i.e., gastric adenocarcinoma (AGS, BGC-823), lung carcinoma (A549), and lung adenocarcinoma (SPC-A-1), were purchased from the Cell Bank of Shanghai Institute of Cell Biology, Chinese Academy of Sciences, and cultured in Iscove's Modified Dulbecco's Medium (IMDM) containing 10% fetal bovine serum (FBS) in an incubator at 37° C. under 5% CO2. Cells of 70˜80% confluence were trypsinized, resuspended in IMDM medium containing 10% FBS at 1×10^5 cells/ml, and seeded in 96-well plates (100 μl in each well). The plates were incubated at 37° C. under 5% CO2 overnight.
(§3) A DMSO solution containing LuA, LuB, or LuE was added to each “treatment” well. Efficacy of LuA, LuB, and LuE at six concentrations, 100, 30, 10, 3, 1, and 0.3 μg/ml, was studied. Wells, to each of which a DMSO solution (containing no LuA, LuB, or LuE) was added, were used as “control;” and wells, to each of which no LuA, LuB, LuE, or DMSO was added, were used as “background.” The plates were then incubated at 37° C. under 5% CO2 for 48 hrs.
(§4) 10 μl of 3-(4,5-dimethyl-thiazol-2-yl)-2,5-diphenyl tetrazolium bromide in phosphate buffered saline (PBS), 5 mg/ml, was added to all wells except the background wells. After incubation for 3-4 hrs, the cells were collected by spinning at 1000 rpm for 15 minutes, followed by removal of the supernatants by vacuum. The cells thus collected in each well, after wash with 150 μl of PBS, were placed in 150 μl of DMSO.
(§5) The plates were then placed on a shaker at 150 rpm for 15 minutes to dissolve the precipitate in each well. Absorbance was measured at 492 nm using a microplate reader.
(§6) Inhibition ratios for cells treated with LuA, LuB, and LuE, respectively, were calculated according to the following equation: [formula]
(§7) A software program, XLfit (ID Business Solutions), was used to calculate the concentrations of LuA, LuB, and LuE required to reach 10, 20, . . . 90% inhibition (i.e., IC10, IC20, . . . IC90) for each tested tumor cell line.

[2] = system: gastric adenocarcinoma (BGC-823); test: in vitro MTT proliferation assay, BGC-823 cells; details: 48 hrs; for inhibition of cancer cell line BGC-823: 0.3-100 μg/ml, absorbance at 492 nm; for IC50 values for BGC-823: calculated with XLfit
Method: as §1, §2, §3, §4, §5, §6, §7

[3] = system: lung carcinoma (A549); test: in vitro MTT proliferation assay, A549 cells; details: 48 hrs; for inhibition of cancer cell line A549: 0.3-100 μg/ml, absorbance at 492 nm; for IC50 values for A549: calculated with XLfit
Method: as §1, §2, §3, §4, §5, §6, §7

[4] = system: lung adenocarcinoma (SPC-A-1); test: in vitro MTT proliferation assay, SPC-A-1 cells; details: 48 hrs, 0.3-100 μg/ml, absorbance at 492 nm
Method: as §1, §2, §3, §4, §5, §6, §7

IC50 values for AGS [1] | IC50 values for BGC-823 [2] | IC50 values for A549 [3] | Structure (SMILES) | inhibition of cancer cell line AGS [1] | inhibition of cancer cell line BGC-823 [2] | inhibition of cancer cell line A549 [3] | inhibition of cancer cell line SPC-A-1 [4]
particularly low | particularly low | particularly low | C=C1C(=O)[C@]23C[C@H]1C[C@H](OC(C)=O)[C@H]2[C@]1(C)C[C@H](OC(C)=O)[C@H](OC(C)=O)C(C)(C)[C@H]1[C@@H](OC(C)=O)[C@@H]3O [LuA, Lushanrubescensin A] | effectively inhibited | effectively inhibited | effectively inhibited | effectively inhibited
particularly low | particularly low | particularly low | C=C1C(=O)[C@]23C[C@H]1C[C@H](O)[C@H]2[C@]1(C)C[C@H](OC(C)=O)[C@H](OC(C)=O)C(C)(C)[C@H]1[C@@H](OC(C)=O)[C@@H]3O [LuB, Lushanrubescensin B] | effectively inhibited | effectively inhibited | effectively inhibited | effectively inhibited
– | – | – | C=C1C(=O)[C@]23C[C@H]1C[C@@H](O)[C@H]2[C@]1(C)C[C@H](OC(C)=O)[C@H](OC(C)=O)C(C)(C)[C@H]1[C@@H](OC(C)=O)[C@@H]3O [LuE, Lushanrubescensin E] | effectively inhibited | effectively inhibited | effectively inhibited | effectively inhibited

— patent US20060160895A1, “Anti-cancer agents” (priority 2004, published 2006)
